Legend:
[1] = Clearance of proET-1 peptides after i.v. bolus in anaesthetised rats; assay type: in vivo, rat
Experimental: To examine whether circulating half-lives influenced plasma levels of proET-1 peptides clearance rates were investigated in anaesthetised rats. […] Based on a circulating blood volume of 7.2 ± 0.3 ml per 100 g body weight, a mean weight of 345 ± 6 g and hematocrit of 40–60%, the hypothetical maximum plasma concentrations were 23–35 pmol/ml. However, the levels of NT-proET-1, ELDP and CT-proET-1 30 s after injection were 0.29 ± 0.02, 3.65 ± 0.23, and 11.74 ± 0.64 pmol/ml, respectively. Relative to estimates for dilution in circulating blood, these values represent ≈1%, 10–16%, and 34–51% of administered peptide for NT-proET-1, ELDP and CT-proET-1. Moreover, NT-proET-1 was almost completely cleared from the circulation in <5 min (estimated initial t½ < 20 s).
Figure 5 Comparison of clearance rates of NT-proET-1, ELDP and CT-proET-1 in anaesthetised rats. A bolus dose containing 1 nmol/kg of each proET-1 peptide as a combined solution prepared in 0.9% saline/0.1% BSA was administered i.v. and heparinised arterial blood samples (0.5 ml) were collected at 0.5, 1, 2, 5, 10, 20 and 40 min after administration of proET-1 peptides. NT-proET-1 (mauve circles), ELDP (red circles) and CT-proET-1 (blue circles) were measured by magnetic bead-based multiplex assays using Luminex methodology (values are mean ± SD, except where SD is less than the symbol size).
A multiplexed immunoassay system was used for simultaneous measurement of NT-proET-1, ELDP and CT-proET-1 in small volumes of rat plasma. Capture antibodies were conjugated to magnetic beads (region 45 – NT-proET-1, region 36 – ELDP, and region 27 – CT-proET-1) following standard protocols (Luminex Corporation). For assay capture antibody-coated magnetic beads were diluted as a premixed combination (10 µl/well) and incubated overnight at 4 °C on an orbital plate mixer with plasma (15 µl) and assay buffer (135 µl). For detection, beads were washed using a ring magnet plate washer before adding 25 µl of combined biotinylated detection antibodies and incubating for 2 h at room temperature on an orbital plate mixer.
All experiments were conducted according to the Animals (Scientific Procedures) Act 1986, UK, and approved by the UK Home Office. Clearance rates of proET-1 peptides and blood pressure effects of ELDP were determined in male Wistar rats (Charles River) anaesthetised with sodium thiopentone (120 mg/kg i.p.). Peptides were administered i.v. via a polyethylene catheter in the left femoral vein. Blood samples (0.5 ml) were collected from a catheter in the left carotid artery into chilled 1.5 ml microcentrifuge tubes containing 50 U/5 µl of heparin. Samples were centrifuged at 12,000 rpm for 2 min at 4 °C. Plasma (50 µl aliquots) samples were stored at −80 °C for subsequent analyses. Blood pressure and heart rate were recorded from the left carotid artery via a polyethylene catheter using Labchart 7.1 (AD Instruments Ltd).

[2] = RP-HPLC elution position of synthetic proET-1 peptides; assay type: physicochemical; settings: ACE-5 C4 300 Å, 5 µm, 4.6 × 250 mm, 1 ml/min, 0.1% TFA – 10% solvent B (80% CH3CN with 0.1% TFA) over 2 min, then 10–30% B over 50 min, 1 min fractions, absorbance at 280 nm and immunoassay
Experimental: Figure 2 Size exclusion chromatography of peptide precipitates from (A) EA.hy 926 and (B) A549 cell lines, (C) cation exchange chromatography of conditioned media from EA.hy 926, and HPLC characterisation of pro-ET-1 peptides from EA.hy 926 cells – (D) NT-proET-1, (E) ELDP and (F) CT-proET-1. (A) and (B) proendothelin-1 peptides from EA.hy 926 and A549 cell lines were subjected to size exclusion chromatography (column 1.6 × 100 cm, Sephadex G50 superfine) equilibrated at 4 °C with 0.1 M NaCl containing 0.01 M HCl. Fractions were subjected to immunoassay for ppET-1[42–50] (open circles) and ppET-1[93–102] (closed circles). Elution positions of adrenomedullin (ADM, M r 6029), big ET-1 (bET-1, M r 4283) and ET-1 (M r 2492) are indicated. […] ELDP (red columns) and CT-proET-1 (blue columns) were measured using immunoassays. […]
ProET-1 peptides were subjected to reverse phase HPLC on C4 silica (15 µm, 300 Å pore, 1 × 25 cm; Jupiter® Phenomenex) with gradient elution at 2 ml/min: 0.1% TFA – 15% solvent B (80% CH3CN with 0.1% TFA) over 2 min, followed by 15–60% B over 45 min. […] Synthetic peptides were used to characterise elution positions of NT-proET-1, ELDP and CT-proET-1 on this second HPLC system by monitoring absorbance at 280 nm and immunoassay of fractions. […]

[3] = rat, 1 nmol/kg i.v. bolus, plasma sampled 0.5–40 min, two-phase clearance

## ALENLLPTKATDRENRCQCASQKDKKCWNFCQAGKELRAEDIMEKDWNNHKKGKDCSKLGKKCIYQQLVRGRKI (disulfide (positions not given here)) [ELDP]
[1]; anaesthetised male Wistar rats, bolus 1 nmol/kg i.v. of each peptide as a combined solution in 0.9% saline/0.1% BSA, arterial plasma, Luminex multiplex immunoassay, mean ± SD
  plasma level 30 s after injection: 3.65 ± 0.23 nM
[1]; [3]
  estimated t½, phase 1: 0.5 min
  estimated t½, phase 2: 5.7 min
[1]; rat, 1 nmol/kg i.v., hypothetical maximum plasma concentration 23–35 pmol/ml
  plasma level at 30 s as % of administered peptide, relative to estimates for dilution in circulating blood: 10–16%
[2]
  elution position on RP-HPLC (fraction number): 45 fraction
